US12286429B2, “5-oxo-1,2,3,5,8,8a-hexahydroindolizine-3-carboxamide derivatives useful as a factor XIa inhibitors” (Janssen Pharmaceutica NV, priority 2021, dated 2025)
pIC50: −log10 of the molar value.

Legend:
Factor XIa = Factor XIa (Homo sapiens, UniProt P03951); experiment: Factor XIa inhibition assay utilizing a fluorophore-quencher pair peptide substrate (FLINT); assay type: biochemical; conditions: 11-point, 3-fold serial dilution, top 100 nM; 30 min preincubation; 15 μM 5Fam-KLTRAETV-K5Tamra substrate; kinetic reads over 30 min; read-out: FXIa Inhibition IC50
Sequence of Factor XIa (P03951 388-625 limits assumed): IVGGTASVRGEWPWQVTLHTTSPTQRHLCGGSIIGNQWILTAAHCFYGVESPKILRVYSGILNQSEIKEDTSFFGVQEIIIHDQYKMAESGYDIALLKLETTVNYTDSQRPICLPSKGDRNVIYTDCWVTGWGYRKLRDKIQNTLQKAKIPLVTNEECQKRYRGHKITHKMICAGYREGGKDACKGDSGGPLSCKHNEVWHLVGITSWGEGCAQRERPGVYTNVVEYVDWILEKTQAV
Sequence of Factor XIa (P03951 19-387 partner limits assumed): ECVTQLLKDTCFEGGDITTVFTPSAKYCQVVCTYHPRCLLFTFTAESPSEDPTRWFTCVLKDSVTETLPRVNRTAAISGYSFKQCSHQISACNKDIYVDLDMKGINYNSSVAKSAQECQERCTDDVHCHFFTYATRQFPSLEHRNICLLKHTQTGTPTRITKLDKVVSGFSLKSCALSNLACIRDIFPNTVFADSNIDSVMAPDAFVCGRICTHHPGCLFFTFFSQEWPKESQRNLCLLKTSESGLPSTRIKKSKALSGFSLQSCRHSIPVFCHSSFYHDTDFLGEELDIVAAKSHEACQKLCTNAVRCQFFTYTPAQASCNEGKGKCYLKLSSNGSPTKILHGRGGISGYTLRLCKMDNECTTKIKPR
Source text: Biological Example 1: Factor XIa Inhibition Assay Utilizing a Fluorophore-Quencher Pair Peptide Substrate
A fluorescence intensity (FLINT) based assay was used to monitor inhibition of Factor XIa. The peptide substrate, 5Fam-KLTRAETV-K5Tamra (purchased from New England Peptide) was chosen based on the FXI sequence. Conversion of zymogen FXI to its activated form, FXIa, occurs by proteolytic cleavage by […] at two sites, Arg146 and Arg180. The custom peptide used in this assay was based on the Arg146 cleavage site of FXI. The peptide substrate was designed with a fluorophore-quencher pair, where the fluorescence is quenched until FXIa cleaves the 8-mer peptide after the Arg residue.
The Factor XIa FLINT assay was used with the following 5Fam-KLTRAETV-K5Tamra assay buffer: 50 mM Tris, pH 7.5, 100 mM NaCl, 5 mM CaCl2, 0.1 mg/mL BSA, 0.03% CHAPS. Assay buffer was prepared by mixing all ingredients fresh. 5Fam-KLTRAETV-K5Tamra peptide substrate was first prepared at 10 mM in 100% DMSO, then diluted to 3 mM in 100% DMSO. Assay buffer was then added directly to the 3 mM stock of substrate to prepare the 30 μM 2× working concentration (15 μM final concentration). The 2× Factor XIa stock solution was prepared by diluting 6.562 μM stock in 1× assay buffer for a […].
Test compound(s) were run in an 11-point, 3-fold serial dilution with a final top compound concentration of 100 nM. Final DMSO in assay was 2%. FXIa was preincubated with compound for 30-minutes and then substrate was added to initiate the reaction. The assay was run with kinetic (KIN) reads at 5 min intervals over 30 minutes. […] More specifically, the assay was run as follows: • 100 nL of 0.01 mM test compound was dispensed into black 384-well non-binding Greiner BioOne 784900 plate for 0.1 μM final concentration, • 5 μL of 1× assay buffer was dispensed to column 24 (low control) and 5 μL 2× Factor XIa solution was dispensed to columns 1-23 (column 23 high control); • the plate was centrifuged with a “cover” plate at 500 rpm for 1 min • the plate was pre-incubated for 30 minutes at room temperature with plate covered; • 5 μL of 2×5Fam-KLTRAETV-K5Tamra peptide substrate was dispensed into the entire plate, columns 1-24; • the plate was centrifuged with a “cover” plate at 500 rpm for 1 min; • the plate was read monitoring fluorescence intensity on the BMG PHERAStar at room temperature, using fluorescence module 485 nm/520 nm.
(§1) Percent inhibition (IC50) curves were generated per compound tested, and data was analyzed using a 4-parameter logistic fit using GeneData Screener. The relative fluorescence unit (RFU) values were normalized to percent inhibition using the following equation: % inhibition=((HC−LC)−(compound−LC)/(HC−LC))*100
where LC—low control=mean signal of no Factor XIa or 100% inhibition of Factor XIa; HC—high control=mean signal of Factor XIa+5Fam-KLTRAETV-K5Tamra peptide substrate with DMSO only.
(§2) An 11-point dose response curve for the test compound(s) was generated using GENDATA to determine IC50 value based on the following equation: Y=Bottom+(Top−Bottom)/(1+10^((log IC50−X)*HillSlope))
(§3) where Y is the % inhibition in the presence of X inhibitor concentration, Top=high control=mean signal of Factor XIa+5Fam-KLTRAETV-K5Tamra peptide substrate with DMSO only; Bottom=low control—mean signal of no Factor XIa or 100% inhibition of Factor XIa; HillSlope—Hill coefficient; and IC50=concentration of compound with 50% inhibition in relation to top/high control.

human plasma kallikrein = human plasma kallikrein (Homo sapiens, UniProt P03952); experiment: Kallikrein inhibition assay utilizing a quenched AMC peptide substrate (FLINT); assay type: biochemical; conditions: 11-point, 3-fold serial dilution, top 1 μM; 30 min preincubation; 2 nM kallikrein; 50 μM Z-Gly-Pro-Arg-AMC; kinetic reads over 30 min
Sequence of human plasma kallikrein (P03952 391-638 limits assumed): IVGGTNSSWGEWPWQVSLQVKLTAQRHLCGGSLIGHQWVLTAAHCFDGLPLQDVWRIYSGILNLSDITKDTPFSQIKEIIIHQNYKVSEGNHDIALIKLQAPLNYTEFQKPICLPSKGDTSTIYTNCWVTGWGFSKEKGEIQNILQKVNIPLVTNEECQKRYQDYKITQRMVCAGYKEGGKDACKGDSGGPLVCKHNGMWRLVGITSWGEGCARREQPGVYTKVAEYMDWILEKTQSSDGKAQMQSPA
Sequence of human plasma kallikrein (P03952 20-390 partner limits assumed): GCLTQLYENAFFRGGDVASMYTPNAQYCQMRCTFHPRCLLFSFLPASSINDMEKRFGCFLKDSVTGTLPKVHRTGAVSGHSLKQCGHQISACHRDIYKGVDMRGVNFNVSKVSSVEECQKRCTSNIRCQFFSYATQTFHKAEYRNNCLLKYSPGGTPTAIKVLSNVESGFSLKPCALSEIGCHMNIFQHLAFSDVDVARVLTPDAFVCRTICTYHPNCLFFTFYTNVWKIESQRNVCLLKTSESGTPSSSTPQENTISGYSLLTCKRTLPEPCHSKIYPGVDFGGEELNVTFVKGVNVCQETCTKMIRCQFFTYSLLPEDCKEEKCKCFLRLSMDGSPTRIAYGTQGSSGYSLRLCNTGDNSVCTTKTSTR
Description: Biological Example 2: Kallikrein Inhibition Assay Utilizing a Quenched AMC Peptide Substrate
A fluorescence intensity (FLINT) based assay was used to monitor inhibition of human plasma kallikrein. The peptide substrate, Z-Gly-Pro-Arg-AMC (Purchased from Bachem; Catalog #I-1150) was chosen based on its relatively low KM for kallikrein which enables running the assay at lower substrate concentrations to control background fluorescence. The kinetic parameters for this substrate were determined by fitting titration data to the Michaelis-Menten equation yielding a KM=40 μM, kcat=0.76 s^−1, and kcat/KM=18932 M^−1s^−1.
The Kallikrein FLINT assay was used with the following Z-Gly-Pro-Arg-AMC assay buffer: 50 mM Tris, pH 7.5, 100 mM NaCl, 5 mM CaCl2, 0.1 mg/mL BSA, 0.03% CHAPS. Assay buffer was prepared by mixing all ingredients fresh. 2× Z-Gly-Pro-Arg-AMC peptide substrate was prepared by diluting 10 mM stock into 1× assay buffer for a 100 μM working concentration (50 μM final concentration). The 2× kallikrein stock solution was prepared by diluting 14.76 μM stock in 1× assay buffer for a 4 nM working stock solution (2 nM final concentration).
Test compound(s) were run in an 11-point, 3-fold serial dilution with a final top compound concentration of 1 μM. Final DMSO in assay was 2%. Plasma kallikrein was pre-incubated for 30-minute with compound and then 50 μM substrate was added to initiate the reaction. The assay was run with kinetic (KIN) reads at 5 min intervals over 30 minutes. The time course was linear using 2 nM kallikrein greater than 30 minutes. More specifically, the assay was run as follows: • 100 nL of 0.1 mM test compound was dispensed into black 384-well non-binding Greiner BioOne 784900 plate for 1 μM final concentration; • 5 μL of 1× assay buffer was dispensed to columns 24 (low control) and 5 μL 2× human kallikrein enzyme solution was dispensed to columns 1-23 (column 23 high control); • the plate was centrifuged with a “cover” plate at 500 rpm for 1 min • the plate was pre-incubated for 30 minutes at room temperature with plate covered; • 5 μL of 2× Z-Gly-Pro-Arg-AMC peptide substrate was dispensed into the entire plate, columns 1-24; • the plate was centrifuged with a “cover” plate at 500 rpm for 1 min; • the plate was read monitoring fluorescence intensity on the BMG PHERAStar at room temperature, using fluorescence module 340 nm/440 nm.
as §1
where LC—low control=mean signal of […] 100% inhibition of human kallikrein enzyme; HC—high control=mean signal of […]+Z-Gly-Pro-Arg-AMC peptide substrate with DMSO only.
as §2
as §3, with “human kallikrein enzyme+Z-Gly-Pro-Arg-AMC” for “Factor XIa+5Fam-KLTRAETV-K5Tamra”, “human kallikrein enzyme” for “Factor XIa”, “human kallikrein enzyme;” for “Factor XIa;”

pIC50 (Factor XIa)	pIC50 (human plasma kallikrein)	Structure (SMILES)
7.34	6.81	Cn1nncc1-c1ccc(NC(=O)[C@@H]2CCC3CC(c4c(-n5cnnn5)ccc(Cl)c4F)=CC(=O)N32)cc1 (mixture of isomers) [ID No. 71, (3S)-7-[3-Chloro-2-fluoro-6-(tetrazol-1-yl)phenyl]-N-[4-(3-methyltriazol-4-yl)phenyl]-5-oxo-2,3,8,8a-tetrahydro-1H-indolizine-3-carboxamide]
7.40	6.38	O=C(Nc1ccc(-c2nc(=O)o[nH]2)cc1)[C@@H]1CCC2CC(c3c(OC(F)F)ccc(Cl)c3F)=CC(=O)N21 (mixture of isomers) [ID No. 38, (3S)-7-(3-Chloro-6-(difluoromethoxy)-2-fluorophenyl)-5-oxo-N-(4-(5-oxo-2,5-dihydro-1,2,4-oxadiazol-3-yl)phenyl)-1,2,3,5,8,8a-hexahydroindolizine-3-carboxamide]
9.52	7.65	O=C(Nc1ccc(-c2nc(=O)o[nH]2)cc1)[C@@H]1CCC2CC(c3c(-n4cnnn4)ccc(Cl)c3F)=CC(=O)N21 (mixture of isomers) [ID No. 76, (3S)-7-[3-Chloro-2-fluoro-6-(tetrazol-1-yl)phenyl]-5-oxo-N-[4-(5-oxo-2H-1,2,4-oxadiazol-3-yl)phenyl]-2,3,8,8a-tetrahydro-1H-indolizine-3-carboxamide]
6.74	6.21	CO[C@H]1C[C@@H](C(=O)Nc2ccc3ncccc3c2)N2C(=O)C=C(c3c(-n4cnnn4)ccc(Cl)c3F)CC12 (mixture of isomers) [ID No. 29, (1S,3S)-7-[3-Chloro-2-fluoro-6-(tetrazol-1-yl)phenyl]-1-methoxy-5-oxo-N-(6-quinolyl)-2,3,8,8a-tetrahydro-1H-indolizine-3-carboxamide]
8.32	7.63	CN(O)C(=O)c1cc2cc(NC(=O)[C@@H]3CCC4CC(c5c(-n6cnnn6)ccc(Cl)c5F)=CC(=O)N43)ccc2[nH]1 (mixture of isomers) [ID No. 31, 5-((3S)-7-(3-Chloro-2-fluoro-6-(1H-tetrazol-1-yl)phenyl)-5-oxo-1,2,3,5,8,8a-hexahydroindolizine-3-carboxamido)-N-hydroxy-N-methyl-1H-indole-2-carboxamide]
7.59	6.95	Cc1nc(-c2ccc(NC(=O)[C@@H]3CC[C@@H]4CC(c5c(-n6cnnn6)ccc(Cl)c5F)=CC(=O)N43)cc2)co1 [ID No. 20, (3S,8aR)-7-(3-Chloro-2-fluoro-6-(1H-tetrazol-1-yl)phenyl)-N-(4-(2-methyloxazol-4-yl)phenyl)-5-oxo-1,2,3,5,8,8a-hexahydroindolizine-3-carboxamide]
8.21	8.04	O=C(Nc1ccc2nc[nH]c(=O)c2c1)[C@@H]1CC[C@@H]2CC(c3c(-n4cnnn4)ccc(Cl)c3F)=CC(=O)N21 [ID No. 18, (3S,8aR)-7-(3-Chloro-2-fluoro-6-(1H-tetrazol-1-yl)phenyl)-5-oxo-N-(4-oxo-3,4-dihydroquinazolin-6-yl)-1,2,3,5,8,8a-hexahydroindolizine-3-carboxamide]
8.10	7.20	Cn1cnc(-c2ccc(NC(=O)[C@@H]3CCC4CC(c5c(-n6cnnn6)ccc(Cl)c5F)=CC(=O)N43)cc2)n1 (mixture of isomers) [ID No. 77, (3S)-7-[3-Chloro-2-fluoro-6-(tetrazol-1-yl)phenyl]-N-[4-(1-methyl-1,2,4-triazol-3-yl)phenyl]-5-oxo-2,3,8,8a-tetrahydro-1H-indolizine-3-carboxamide]
7.74	7.14	O=C1Cc2cc(NC(=O)[C@@H]3CC[C@@H]4CC(c5c(-n6cnnn6)ccc(Cl)c5F)=CC(=O)N43)ccc2N1 [ID No. 12, (3S,8aR)-7-(3-Chloro-2-fluoro-6-(1H-tetrazol-1-yl)phenyl)-5-oxo-N-(2-oxoindolin-5-yl)-1,2,3,5,8,8a-hexahydroindolizine-3-carboxamide]
7.78	7.69	O=C(Nc1ccc2nccc(O)c2c1)[C@@H]1CC[C@@H]2CC(c3c(-n4cnnn4)ccc(Cl)c3F)=CC(=O)N21 [ID No. 9, (3S,8aR)-7-(3-Chloro-2-fluoro-6-(1H-tetrazol-1-yl)phenyl)-N-(4-hydroxyquinolin-6-yl)-5-oxo-1,2,3,5,8,8a-hexahydroindolizine-3-carboxamide]
